Target: alpha-glucosidase (Saccharomyces cerevisiae)
Assay: Inhibition of Saccharomyces cerevisiae alpha-glucosidase activity using pNPG as substrate

IC50: 63 nM
Structure (SMILES): O=C(CO)CCC(=O)c1nc(C(=O)O)cc2c1[nH]c1ccccc12

Source: BindingDB's records for PubMed 30125723 (n/a, 2018)
